Data taken from patent publication US20150342954A1, “2-BENZYL, 3-(PYRIMIDIN-2-YL) SUBSTITUTED PYRAZOLES USEFUL AS SGC STIMULATORS” (IRONWOOD PHARMACEUTICALS, INC., priority 2011, published 2015).
Like-named read-outs stand apart in the source and are kept apart here.

Columns and labels:
[1] = molecular target: T1, soluble guanylate cyclase (sGC) (Homo sapiens, UniProt Q02108+Q02153); assay: sGC-HEK-cGMP assay (run with SNP incubation); assay type: cell-based; conditions: for Emax: Table 3A, 10 μM SNP, 100% = 30 μM BAY 41-2272 with 10 μM SNP, read-out: HEK assay Emax-unconstrained (Percent); for HEK MEC-10: concentration that would elicit 10% of the Emax in the presence of 10 μM SNP; for HEK MEC-10 / EC50: Table 3D; for EC50: in the presence of 10 μM SNP
T1 construct: endogenously expressing soluble guanylate cyclase (sGC); endogenous in cells; host or cells: HEK293
T1 sequence (Q02153 1-619): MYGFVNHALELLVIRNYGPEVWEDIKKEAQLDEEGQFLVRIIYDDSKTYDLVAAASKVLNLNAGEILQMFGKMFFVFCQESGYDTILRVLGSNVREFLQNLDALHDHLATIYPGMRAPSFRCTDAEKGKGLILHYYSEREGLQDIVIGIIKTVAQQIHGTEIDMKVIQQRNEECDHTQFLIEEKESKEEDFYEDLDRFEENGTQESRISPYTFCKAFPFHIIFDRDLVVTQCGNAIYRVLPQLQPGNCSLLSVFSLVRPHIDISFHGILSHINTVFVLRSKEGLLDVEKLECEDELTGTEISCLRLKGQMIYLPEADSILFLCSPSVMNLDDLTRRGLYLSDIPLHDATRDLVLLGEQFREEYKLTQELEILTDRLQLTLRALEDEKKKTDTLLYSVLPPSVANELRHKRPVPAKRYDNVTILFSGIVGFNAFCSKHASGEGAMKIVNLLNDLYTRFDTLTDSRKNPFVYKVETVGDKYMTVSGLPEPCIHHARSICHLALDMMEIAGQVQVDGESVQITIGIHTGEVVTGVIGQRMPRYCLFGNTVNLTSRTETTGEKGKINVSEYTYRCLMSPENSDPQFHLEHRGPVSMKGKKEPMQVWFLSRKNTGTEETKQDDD
T1 sequence (Q02108 1-690): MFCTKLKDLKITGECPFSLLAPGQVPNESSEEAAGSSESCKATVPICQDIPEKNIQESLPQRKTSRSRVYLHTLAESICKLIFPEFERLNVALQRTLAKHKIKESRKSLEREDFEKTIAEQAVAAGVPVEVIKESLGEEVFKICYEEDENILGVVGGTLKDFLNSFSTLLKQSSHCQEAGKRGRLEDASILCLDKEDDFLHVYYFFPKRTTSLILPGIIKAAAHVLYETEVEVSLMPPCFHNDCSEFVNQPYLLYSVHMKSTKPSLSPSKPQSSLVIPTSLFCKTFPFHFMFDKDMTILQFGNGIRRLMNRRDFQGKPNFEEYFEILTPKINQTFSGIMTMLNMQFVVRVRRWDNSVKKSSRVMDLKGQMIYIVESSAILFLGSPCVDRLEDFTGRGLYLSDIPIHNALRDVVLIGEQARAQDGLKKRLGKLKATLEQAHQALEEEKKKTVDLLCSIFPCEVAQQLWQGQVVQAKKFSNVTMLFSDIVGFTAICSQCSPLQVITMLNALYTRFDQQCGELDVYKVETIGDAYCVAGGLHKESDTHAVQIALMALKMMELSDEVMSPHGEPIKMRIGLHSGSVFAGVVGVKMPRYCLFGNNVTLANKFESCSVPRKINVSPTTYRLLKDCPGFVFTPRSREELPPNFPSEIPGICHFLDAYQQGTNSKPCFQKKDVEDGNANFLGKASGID
Procedure: Biological Activity Measurement by the sGC-HEK-cGMP Assay
(Assay Run with SNP Incubation)
Human embryonic kidney cells (HEK293), endogenously expressing soluble guanylate cyclase (sGC), were used to evaluate the activity of test compounds. Compounds stimulating the sGC receptor should cause an increase in the intracellular concentration of cGMP. HEK 293 cells were seeded in Dulbecco's Modification of Eagle's Medium supplemented with fetal bovine serum (10% final) and L-glutamine (2 mM final) in a 2004 volume at a density of 1×10^5 cells/well in a poly-D-lysine coated 96 well flat bottom plate and grown overnight at 37° C. Medium was aspirated and cells were washed with 1× Hank's Buffered Saline Salt Solution (2004). Cells were then incubated for 15 minutes at 37° C. with 0.5 mM 3-isobutyl-1-methylxanthine (2004). Test article and sodium nitroprusside were then added to the assay mixture (24 each) and incubated at 37° C. for 10 minutes. After the 10 minute incubation, the assay mixture was aspirated and 0.1M HCl (2004) was added to the cells. The plate was incubated at 4° C. for 30 minutes in the 0.1M HCl to stop the reaction and lysed the cells. The plates were then centrifuged at 1,200 g for 5 minutes at room temperature. Supernatants were collected and transferred to a new flat bottom 96 well plate for analysis. Vehicle controls were carried out using DMSO (1%). A known sGC stimulator, BAY 41-2272, was used as the positive control. Samples were diluted with an equal volume of 1 M Ammonium Acetate (pH 7) to neutralize samples for better chromatography. A 2×cGMP standard curve was prepared in 0.1 M HCl and then diluted with an equal volume of 1 M Ammonium Acetate, with the following final concentrations in nM: 1024, 512, 256, 128, 64, 32, 16, 8, 4, 2, 1.cGMP concentrations were determined from each sample using the LC/MS conditions (Table 2 below) and calculated standard curve. EC50 values were calculated from concentration-response curves generated with GraphPad Prism Software.

[2] = molecular target: T2, Human soluble guanylate cyclase enzyme (hsGC) (Homo sapiens, UniProt Q02108+Q02153); assay: Purified human sGC enzyme activity assay (without SNP); assay type: biochemical; conditions: compound at 30 μM, absence of SNP; fold over DMSO control; Table 5A
T2 construct: purchased Enzo Inc. ALX-201-177
T2 sequence (Q02153 1-619): T1 sequence (Q02153 1-619)
T2 sequence (Q02108 1-690): T1 sequence (Q02108 1-690)
Procedure: Biological Activity Measurements by the Purified Human sGC Enzyme Activity Assay
(§1) Human soluble guanylate cyclase enzyme (hsGC) obtained from Enzo Inc. (P/N: ALX-201-177) was used to evaluate the activity of test compounds. The assay reactions contained 0.1 M Tris (pH 8.0), 0.5 mg/mL BSA (pH 8.0), 2 mM DTT, 2 mM MgCl2, 300 μM GTP, 1 mM 3-isobutyl-1-methylxanthine (IBMX) and 5 ng human soluble guanylate cyclase enzyme. Test compounds in DMSO were then added (2 μL, 10 or 30 μM final concentration) and incubated (200 μL, 96-well plate format) at 37° C. for 30 minutes. The controls were carried out using 2 μL DMSO. After the 30 minute incubation, the reaction was stopped with the addition of 200 μl of cold methanol. The plate was then centrifuged at 3,200 rpm for 10 minutes at room temperature. Supernatants (200 μL) were collected and transferred to a new 96 well plate for analysis.
(§2) An 8 point cGMP (Sigma-Aldrich P/N: G6129) standard curve was prepared in assay buffer ranging from 0.156-20 μM. Samples for the cGMP standard curve were then diluted with an equal volume of methanol resulting in final cGMP concentrations of 0.078-10 μM.
(§3) The cGMP standard curve was generated using GraphPad Prism Software.
(§4) Calculations: Specific Activity was determined by the amount of cGMP formed (nmoles) per mg of sGC per min. Enzyme “fold-change” was calculated by dividing Specific Activity for test compounds by Specific Activity of DMSO controls.

[3] = molecular target: T2, Human soluble guanylate cyclase enzyme (hsGC); assay: Purified human sGC enzyme synergy assay in the presence of 1 μM sodium nitroprusside (SNP); assay type: biochemical; conditions: compound at 30 μM, presence of 1 μM SNP; Table 5A
Procedure: as §1, §2, §3, §4
Biological Measurement by the Purified Human sGC Enzyme Synergy Performed in the Presence of Sodium Nitroprusside (SNP), a Nitric Oxide Donor
Enzyme assays were performed as described above, but was done in the absence or presence of 1 μM sodium nitroprusside (SNP).

[4] = top of concentration-response curve not fitted to 100%
[5] = top of concentration-response curve not fitted to 100%, read-out: HEK assay EC50-unconstrained

SMILES | Emax [1, 4] [%] | HEK MEC-10 [1] | EC50 ([1]; read-out: HEK assay EC50) [µM] | EC50 [1, 5] [µM] | Enzyme Activity (increase at 30 μM without SNP) [2] | Enzyme Activity (increase at 30 μM with SNP) [3]
CSc1cnc(-c2cc(-c3ccon3)n(Cc3ccccc3F)n2)nc1O [Compound 29, 2-(1-(2-fluorobenzyl)-5-(isoxazol-3-yl)-1H-pyrazol-3-yl)-5-(methylthio)pyrimidin-4-ol] | 40 to 60 | E (10 to 50 μM) | < 20 | 5 to 10 | B (2 to <5 fold increase) | D (10 or <20 fold increase)
Nc1nc(-c2cc(-c3ncco3)n(Cc3ccccc3F)n2)ncc1NC(=O)C1(F)CC1 [Compound 31] | 80 to 100 | C (0.1 to <1 μM) | < 20 | 1 to 5 | B (2 to <5 fold increase) | D (10 or <20 fold increase)
Fc1ccccc1Cn1nc(-c2ncccn2)c(F)c1-c1ccon1 [Compound 34] | 20 to 40 | D (1 to <10 μM) | 60 to 100 | 1 to 5 | B (2 to <5 fold increase) | D (10 or <20 fold increase)
Oc1nc(-c2cc(-c3ccon3)n(Cc3ccccc3F)n2)ncc1-c1ncco1 [Compound 38] | 80 to 100 | D (1 to <10 μM) | < 20 | 5 to 10 | B (2 to <5 fold increase) | C (5 to <10 fold increase)
Oc1nc(-c2cc(-c3ccon3)n(Cc3ccccc3F)n2)ncc1Sc1ccccc1 [Compound 39, 2-(1-(2-fluorobenzyl)-5-(isoxazol-3-yl)-1H-pyrazol-3-yl)-5-(phenylthio)pyrimidin-4-ol] | 100 to 120 | A (0.001 to <0.01 μM) | < 20 | 0.01 to 0.5 | D (10 or <20 fold increase) | E (20 to 30 fold increase)
Oc1nc(-c2cc(-c3ccon3)n(Cc3ccccc3)n2)ncc1F [Compound 41] | 80 to 100 | B (0.01 to <0.1 μM) | < 20 | 0.5 to 1 | C (5 to <10 fold increase) | D (10 or <20 fold increase)
Oc1nc(-c2cc(-c3ccon3)n(Cc3ccccc3F)n2)ncc1-c1nccs1 [Compound 42] | 40 to 60 | C (0.1 to <1 μM) | < 20 | 0.5 to 1 | B (2 to <5 fold increase) | D (10 or <20 fold increase)
Oc1nc(-c2cc(-c3ccon3)n(Cc3ccccc3F)n2)ncc1-c1ccccn1 [Compound 43] | 40 to 60 | C (0.1 to <1 μM) | < 20 | 1 to 5 | B (2 to <5 fold increase) | D (10 or <20 fold increase)
Oc1nc(-c2cc(-c3nccs3)n(Cc3ccccc3F)n2)ncc1F [Compound 44] | 40 to 60 | C (0.1 to <1 μM) | < 20 | 0.01 to 0.5 | B (2 to <5 fold increase) | D (10 or <20 fold increase)
Oc1nc(-c2cc(-c3ccon3)n(Cc3ccccc3F)n2)ncc1-c1ccsc1 [Compound 45] | 10 to 20 | E (10 to 50 μM) | 100 to 300 | 5 to 10 | A (no increase to <2 fold increase) | B (2 to <5 fold increase)
Fc1ccccc1Cn1nc(-c2ncc(Br)c(Cl)n2)cc1-c1ccon1 [Compound 52] | 40 to 60 | D (1 to <10 μM) | 60 to 100 | 10 to 50 | B (2 to <5 fold increase) | D (10 or <20 fold increase)
CC(C)(CC(F)(F)F)C(=O)Nc1cnc(-c2cc(-c3ccon3)n(Cc3ccccc3F)n2)nc1N [Compound 53] | 60 to 80 | C (0.1 to <1 μM) | < 20 | 1 to 5 | C (5 to <10 fold increase) | E (20 to 30 fold increase)
O=c1[nH]c(-c2cc(-c3ccon3)n(Cc3ccccc3F)n2)nc(Cl)c1Cl [Compound 54] | 40 to 60 | D (1 to <10 μM) | 40 to 60 | 5 to 10 | A (no increase to <2 fold increase) | C (5 to <10 fold increase)
CC1(C(=O)Nc2cnc(-c3cc(-c4ncco4)n(Cc4ccccc4F)n3)nc2N)CC1(F)F (stereo not drawn) [Compound 55] | 100 to 120 | C (0.1 to <1 μM) | < 20 | 1 to 5 | C (5 to <10 fold increase) | F (>30 fold increase)
